Key:
[1] = tested on: M2a macrophages; test: Flow cytometry of CD163 and CD86 on activated M2a macrophages cultured in IL-4; assay type: cell-based, human; settings: M2a macrophages cultured in IL-4, immunosuppressive conditions
Protocol: Steps for an alternative method for in vitro culture and characterization of human macrophages that includes activation of M1 and M2 macrophages (designated M1a and M2a macrophages) are outlined below. This methodology was used in the next series of experiments.
Phenotypic and functional evaluation of β-glucan-treated M2a and β-glucan-treated M2 macrophages in the presence of immunosuppressive cytokines was carried out. M2 or M2a macrophages were prepared as described above. On day 3, tumor-conditioned medium (TCM) was added M2 macrophage cultures to account for 70% of the volume of the culture and then evaluated for CD163 expression and functional activity on day 6. […] M2a macrophages were cultured in IL-4 as described above.
The β-glucan-treated M2a macrophages cultured in IL-4 and M2 macrophages cultured in TCM were first evaluated for CD163 and CD86 expression. CD163 and CD86 were evaluated by flow cytometry and median MFI was calculated for isotype control staining and surface antigen staining and the results are shown in Table 5.

[2] = tested on: IFN-γ; test: IFN-γ ELISA of co-culture supernatants; assay type: cell-based, human
Protocol: CD14^+ monocytes from human whole blood were enriched using Ficoll gradient and magnetic bead separation. Enriched monocytes (5×10^5 cells per mL) were then cultured in either M1-polarizing (XVivo 10 media (Lonza Group) supplemented with 5% autologous serum and 100 ng/mL recombinant human granulocyte macrophage colony-stimulating factor (rhGM-CSF) (R&D Systems) or M2-polarizing (XVivo 10 media supplemented with 10% autologous serum and 50 ng/mL recombinant human macrophage colony-stimulating factor (rhM-CSF) (R&D Systems) conditions for 6 days. In experiments performed to evaluate the effect of β-glucan, whole blood was first incubated with vehicle (sodium citrate buffer) or 25 μg/mL soluble β-glucan for 2 hours at 37° C. and then the monocytes were isolated and differentiated. Morphology was checked before macrophages were harvested for phenotypic analysis. Culture medium of the day 6 macrophage culture (MCM) was collected, spun down to remove contaminated cell pellet and then frozen down for subsequent cytokine analysis by ELISA or used to setup a co-culture with CD3 & CD28-stimulated CD4 T cells (MCM-CD4 T) for evaluation of either surface markers or CD4 T cell proliferation. The macrophages were used to setup a co-culture with CD3 & CD28- or CD3 only-stimulated CD4 T cells (Mac-CD4 T) on day 6 for evaluation of either surface marker modulation or effect on CD4 T cell proliferation. For Mac-CD4 T cell proliferation study, M1 or M2 macrophages were cultured with CD3 & CD28- or CD3 only-stimulated, CFSE-labeled, autologous CD4 T cells at a 1:10 ratio. T cell proliferation was measured at the end of the experiment (day 9-day 11) by flow cytometry, and results are graphically shown as CFSE-dilution peaks. The assessment of CD3-only stimulated T cells was always done on day 11. Quantitative results were reported as the Division Index (the average number of cell divisions a population underwent) calculated for each of the triplicate wells in each of the culture conditions. Culture supernatants of Mac-CD4 T co-cultures were collected for subsequent cytokine analysis.
The culture supernatants from the CFSE dilution T-cell proliferation assay (FIG. 2B) were also measured for IFN-gamma levels by ELISA. […] Thus, β-glucan affects M2 to M1 repolarization and drives anti-tumorigenic Th1 polarization.
Modulation of IFN-γ and IL-4 production of vehicle- and β-glucan-treated M2 macrophages was then evaluated. […] Thus, M2 macrophages derived from β-glucan-treated monocytes are M1-like in high binder subjects.
M2 macrophages from 4 high binders and 4 low binders were prepared and evaluated for their ability to modulate CD4 T cell proliferation. The supernatants from the various CD4 T cell proliferation conditions were measured for IFN-γ by ELISA. Results shown in FIG. 10 are representative from 4 different experiments. Fold change over the IFN-γ levels produced in the co-cultures of vehicle-treated M2 macrophages and CD4 T cells are plotted for each of the 4 donors.

[3] = tested on: CD33+ MDSC; test: MDSC in peripheral blood of a case study subject treated with IMPRIME PGG; assay type: in vivo, human; settings: post-infusion, cycle 8, day 1; within hours
Description: Blood was drawn at various times from a case study subject undergoing treatment with IMPRIME PGG and analyzed for the presence of MDSC. The first blood draw was done pre-infusion, cycle 8, day 1. […] A second blood draw was done post-infusion, cycle 8, day 1. […] The last blood sample was drawn pre-infusion, cycle 8, day 15. The CD33^+ MDSC are again present in the peripheral blood.

[4] = tested on: CD33+CD11b+ cells (MDSC); test: Suppression of T cell proliferation by cord blood-derived MDSC; assay type: cell-based, human; settings: 2:1 ratio of CD8 T cells to MDSCs, vs citrate buffer
Protocol: In another study, human cord blood was enriched for CD34^+ cells and cultured for 9 days to produce CD33^+CD11b^+ cells (MDSC). The MDSC were then treated with soluble β-glucan or citrate buffer (control) and evaluated for their ability to suppress T cell proliferation. The T cell proliferation assay was carried out at a 2:1 ratio of CD8 T cells to treated or untreated MDSCs.

[5] = tested on: CD4 T cells; test: Mac-CD4 T co-culture surface marker modulation on T cells; assay type: cell-based, human
Protocol: For evaluation of Mac-CD4 T cell surface marker modulation, M2 macrophages were co-cultured with T cells as described above and cells were harvested on day 8, day 9 and day 10 to perform surface receptor staining on both M2 macrophages and T cells.
Changes in surface marker expression on both macrophages and CD3 & CD28-stimulated T cells were also measured. Vehicle- and β-glucan-treated M2 macrophages and CD T cells from the co-cultures were evaluated by flow cytometry for the modulation of co-stimulatory or co-inhibitory molecules. FIG. 8C and Table 9 are representative results from 2 different experiments.

[6] = tested on: MC38 tumor cells; test: MC38 tumor model, tumor-free survival; assay type: in vivo; settings: C57BL/6 mice, MC38 s.c.; biweekly from day 3; 1.2 mg/mouse IMPRIME PGG, 100 μs/mouse anti-PDL-1; survivors/group size
Protocol: In another animal study, mice were injected with MC38 tumor cells and randomized into treatment groups. 8 to 12 week-old female C57BL/6 mice were injected with 1×10^6 MC38 tumor cells, a colon adenocarcinoma that expresses low levels of PD-L1, in a volume of 0.1 ml injected subcutaneously in the flank. Mice were dosed biweekly starting on day 3 with the following agents: • 0.2 ml/mouse vehicle • 1.2 mg/mouse IMPRIME PGG (Biothera, Inc.) • 100 μs/mouse anti-PDL-1 Clone: 10F.9G2 BioXcell Catalog#: BE0101
Blood samples were collected 1 hour prior to dose 1, 2 hours after dose 3, the endpoint and 2 hours after the last dose (day 20). Treatment groups included vehicle (PBS control), IMPRIME PGG alone, anti-PD-L1 antibody alone and anti-PD-L1+IMPRIME PGG. Tumors were randomized to treatment groups once sizes reached a group mean of 150 mm^3.

[7] = T cells co-cultured with β-glucan-treated M2 macrophages relative to vehicle-treated

β(1,6)-[poly-(1,3)-D-glucopyranosyl]-poly-β(1,3)-D-glucopyranose [β-glucan]
CD86 median MFI [1]: 4572 | CD163 median MFI [1]: 309 | IFN-gamma levels in culture supernatants ([2]; M2 macrophage-CD4 T co-culture, FIG. 2D): concomitant increase in IFN-gamma production | IFN-γ production ([2]; co-cultures of β-glucan-treated M2 macrophages and CD4 T cells, high binders): significantly increased production | IFN-γ production ([2]; co-cultures under immunosuppressive conditions (TCM, IL-4), FIG. 4): significantly increased production | IFN-γ production ([2]; co-cultures without exogenous CD28 antibody, FIG. 8B): significantly increased production | IFN-γ production ([2]; low binder crossed-over with high binder's serum, FIG. 11B): significantly increased production | IFN-γ production ([2]; β-glucan-treated M2 macrophages, low binders): nor increased IFN-γ production | CD33+ MDSC in peripheral blood [3]: transiently disappear | suppression of T cell proliferation by MDSC [4]: less suppressive | Change in MFI on T cells: 4-1BB [5, 7]: No change | Change in MFI on T cells: CD28 [5, 7]: No change | Change in MFI on T cells: CD40L [5, 7]: No change | Change in MFI on T cells: CTLA-4 [5, 7]: No change | Change in MFI on T cells: PD1 (CD279) ([5]; T cells co-cultured with β-glucan-treated M2 macrophages relative to vehicle-treated (day 9)): Increase | Tumor-free Survivors (day 29) [6]: 2/18
